The record followed here is patent US20240327382A1 (ALMAC DISCOVERY LIMITED, priority 2021, published 2024).

As usually defined, the IC50 is the concentration needed to halve the response being measured.

The assay concerns the target T1, Full-length USP19 (Homo sapiens, UniProt O94966).
T1 construct: Full-length USP19 was purchased from Boston Biochem (E-576); purchased Boston Biochem E-576
T1 sequence (O94966 1-1318): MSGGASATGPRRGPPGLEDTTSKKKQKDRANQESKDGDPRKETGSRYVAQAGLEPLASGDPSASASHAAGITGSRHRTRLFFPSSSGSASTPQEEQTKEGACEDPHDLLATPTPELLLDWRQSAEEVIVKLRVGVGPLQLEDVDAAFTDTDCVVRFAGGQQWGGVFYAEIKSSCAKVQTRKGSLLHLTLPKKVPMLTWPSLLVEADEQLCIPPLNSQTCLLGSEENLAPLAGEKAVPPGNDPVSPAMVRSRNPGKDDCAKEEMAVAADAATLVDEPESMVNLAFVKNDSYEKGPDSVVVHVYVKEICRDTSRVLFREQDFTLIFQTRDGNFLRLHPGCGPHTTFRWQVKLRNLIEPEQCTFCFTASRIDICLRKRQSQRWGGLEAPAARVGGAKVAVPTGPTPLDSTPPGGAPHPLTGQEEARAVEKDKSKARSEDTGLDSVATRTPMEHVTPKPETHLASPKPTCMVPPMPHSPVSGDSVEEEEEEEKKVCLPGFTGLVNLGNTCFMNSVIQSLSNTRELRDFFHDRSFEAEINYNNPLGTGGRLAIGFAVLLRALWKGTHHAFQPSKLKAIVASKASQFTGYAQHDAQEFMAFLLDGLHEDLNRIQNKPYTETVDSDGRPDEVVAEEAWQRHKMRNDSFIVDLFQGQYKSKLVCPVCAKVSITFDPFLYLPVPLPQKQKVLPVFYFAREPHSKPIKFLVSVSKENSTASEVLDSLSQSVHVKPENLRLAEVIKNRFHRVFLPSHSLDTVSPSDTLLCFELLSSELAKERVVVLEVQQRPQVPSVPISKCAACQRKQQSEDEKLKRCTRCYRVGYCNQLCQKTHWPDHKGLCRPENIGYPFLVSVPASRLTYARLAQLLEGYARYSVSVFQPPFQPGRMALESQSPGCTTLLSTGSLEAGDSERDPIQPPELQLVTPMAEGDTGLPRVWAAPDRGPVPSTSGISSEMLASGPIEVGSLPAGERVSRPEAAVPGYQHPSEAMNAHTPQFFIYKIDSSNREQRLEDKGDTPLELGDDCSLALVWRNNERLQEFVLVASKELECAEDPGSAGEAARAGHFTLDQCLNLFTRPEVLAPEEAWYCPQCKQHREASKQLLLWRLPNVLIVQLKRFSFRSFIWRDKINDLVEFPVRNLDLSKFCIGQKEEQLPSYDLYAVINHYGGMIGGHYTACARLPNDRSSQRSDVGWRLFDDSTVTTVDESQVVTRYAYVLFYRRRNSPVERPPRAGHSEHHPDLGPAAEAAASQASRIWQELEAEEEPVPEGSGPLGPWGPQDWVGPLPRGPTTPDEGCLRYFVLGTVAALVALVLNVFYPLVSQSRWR
The experiment in a line: USP19 fluorescence polarisation (FP) assay, Ubiquitin-Lys-TAMRA substrate. The following applies: average of at least two duplicate experiments. Type of assay: biochemical. A digest of the protocol:
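Full-length human USP19 (added at 2.5 nM) was preincubated 30 min at RT with inhibitor (serial dilutions 200 μM to 2 μM) in 50 mM HEPES pH 7.4, 150 mM NaCl, 5 mM DTT, 0.05% BSA, 0.05% CHAPS. Ubiquitin-Lys-TAMRA isopeptide substrate (added at 500 nM) started the reaction, and FP (Ex 530/Em 575 nm) was read every 15 min over 90 min. IC50 came from non-linear regression of signal normalised to no-compound control, averaged over at least two duplicate experiments.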
A general note: In fluorescence polarisation assays a small probe gives low polarisation when free and higher when bound to something large.
As for `CN[C@@H]1CCN(C(=O)N2CC[C@@H](Cn3cnc4ccc(F)cc4c3=O)C3(CCCC3)C2)[C@H](c2cc(F)ccc2F)C1` [Example 125, 3-(((R)-7-((2S,4R)-2-(2,5-Difluorophenyl)-4-(methylamino)piperidine-1-carbonyl)-7-azaspiro[4.5]decan-10-yl)methyl)-6-fluoroquinazolin-4(3H)-one], the IC50 is less than 10 nM.
Turning to `CN[C@@H]1CCN(C(=O)N2CC[C@@H](Cn3cnc(-c4ccccc4F)cc3=O)C3(CCCC3)C2)[C@H](c2cccc(F)c2F)C1` [Example 140, 3-(((R)-7-((2S,4R)-2-(2,3-Difluorophenyl)-4-(methylamino)piperidine-1-carbonyl)-7-azaspiro[4.5]decan-10-yl)methyl)-6-(2-fluorophenyl)pyrimidin-4(3H)-one], the IC50 was less than 10 nM.
On to `O=C(N1CC[C@H](Cn2cnc(-c3ccccc3)cc2=O)C2(CCCC2)C1)N1CCNC[C@H]1c1ccccc1` (single isomer, unassigned) [Example 13], for which the IC50 was 100 to 1000 nM.
On to `CN[C@@H]1CCN(C(=O)N2CC[C@@H](Cn3ccc(-c4ccccc4F)cc3=O)C3(CCCC3)C2)[C@H](c2ccccc2)C1` [Example 55, 4-(2-Fluorophenyl)-1-(((R)-7-((2S,4R)-4-(methylamino)-2-phenylpiperidine-1-carbonyl)-7-azaspiro[4.5]decan-10-yl)methyl)pyridin-2(1H)-one], for which the IC50 is less than 10 nM.
For the compound `CN[C@@H]1CCN(C(=O)N2CC[C@@H](Cn3cnc(-c4ccccc4)cc3=O)C3(CCCC3)C2)[C@H](c2cc(F)cc(F)c2)C1` [Example 122, 3-(((R)-7-((2S,4R)-2-(3,5-Difluorophenyl)-4-(methylamino)piperidine-1-carbonyl)-7-azaspiro[4.5]decan-10-yl)methyl)-6-phenylpyrimidin-4(3H)-one], the IC50 is less than 10 nM.
As for `O=C(N1CC[C@@H](Cn2cnc(-c3ccccc3)cc2=O)C2(CCCC2)C1)N1CC[C@@H](NCc2ncccn2)C[C@H]1c1cc(F)ccc1F` [Example 169, 3-(((R)-7-((2S,4R)-2-(2,5-Difluorophenyl)-4-((pyrimidin-2-ylmethyl)amino)piperidine-1-carbonyl)-7-azaspiro[4.5]decan-10-yl)methyl)-6-phenylpyrimidin-4(3H)-one], the IC50 is less than 10 nM.
The result for `O=C(N1CCC(Cn2cnc(-c3ccccc3)cc2=O)C2(CCCC2)C1)N1CCNC[C@H]1c1cc(F)cc(F)c1` (stereo partly drawn) [Example 11, 3-((7-((R)-2-(3,5-Difluorophenyl)piperazine-1-carbonyl)-7-azaspiro[4.5]decan-10-yl)methyl)-6-phenylpyrimidin-4(3H)-one] reads less than 10 nM.
On to `N[C@@H]1CCN(C(=O)N2CCC(Cn3cnc(-c4ccccc4)cc3=O)CC2)[C@H](c2ccccc2)C1` [Example 9, 3-((1-((2S,4R)-4-Amino-2-phenylpiperidine-1-carbonyl)piperidin-4-yl)methyl)-6-phenylpyrimidin-4(3H)-one], for which the IC50 fell in the range of 10 to 100 nM.
The result for `CN[C@@H]1CCN(C(=O)N2CC[C@@H](Cn3cnc4ccc(F)cc4c3=O)C3(CCCC3)C2)[C@H](c2cccc(F)c2)C1` [Example 167, 6-Fluoro-3-(((R)-7-((2S,4R)-2-(3-fluorophenyl)-4-(methylamino)piperidine-1-carbonyl)-7-azaspiro[4.5]decan-10-yl)methyl)quinazolin-4(3H)-one] reads less than 10 nM; that for `O=C(N1CC[C@@H](Cn2cnc(C(F)F)cc2=O)C2(CCCC2)C1)N1CC[C@@H](NC2CC(F)(F)C2)C[C@H]1c1cc(F)ccc1F` [Example 183, 3-(((R)-7-((2S,4R)-4-((3,3-Difluorocyclobutyl)amino)-2-(2,5-difluorophenyl)piperidine-1-carbonyl)-7-azaspiro[4.5]decan-10-yl)methyl)-6-(difluoromethyl)pyrimidin-4(3H)-one], 10 to 100 nM; that for `CC(C)N[C@@H]1CCN(C(=O)N2CC[C@@H](Cn3cnc(-c4ccccc4)cc3=O)C3(CCCC3)C2)[C@H](c2cc(F)ccc2F)C1` [Example 160, 3-(((R)-7-((2S,4R)-2-(2,5-Difluorophenyl)-4-(isopropylamino)piperidine-1-carbonyl)-7-azaspiro[4.5]decan-10-yl)methyl)-6-phenylpyrimidin-4(3H)-one], less than 10 nM.
The figure for `CN[C@@H]1CCN(C(=O)N2CCC(Cn3ccc(-c4ccccc4)cc3=O)CC2)[C@H](c2cc(F)ccc2F)C1` [Example 98, 1-((1-((2S,4R)-2-(2,5-Difluorophenyl)-4-(methylamino)piperidine-1-carbonyl)piperidin-4-yl)methyl)-4-phenylpyridin-2(1H)-one] is less than 10 nM.
The result for `CN[C@@H]1CCN(C(=O)N2CC[C@@H](Cn3ccc(Cl)cc3=O)C3(CCCC3)C2)[C@H](c2cc(F)ccc2F)C1` [Example 123, 4-Chloro-1-(((R)-7-((2S,4R)-2-(2,5-difluorophenyl)-4-(methylamino)piperidine-1-carbonyl)-7-azaspiro[4.5]decan-10-yl)methyl)pyridin-2(1H)-one] reads less than 10 nM; that for `CC1(C)CN(C(=O)N2CCNC[C@H]2c2ccccc2)CCC1Cn1cnc(-c2ccccc2)cc1=O` (stereo partly drawn) [Example 18, 3-((33-Dimethyl-1-((R)-2-phenylpiperazine-1-carbonyl)piperidin-4-yl)methyl)-6-phenylpyrimidin-4(3H)-one], 10 to 100 nM; that for `CN[C@@H]1CCN(C(=O)N2CC[C@@H](Cn3cnc4ccc(Cl)cc4c3=O)C3(CCCC3)C2)[C@H](c2cc(F)ccc2F)C1` [Example 198, 6-Chloro-3-(((R)-7-((2S,4R)-2-(2,5-difluorophenyl)-4-(methylamino)piperidine-1-carbonyl)-7-azaspiro[4.5]decan-10-yl)methyl)quinazolin-4(3H)-one], less than 10 nM.
On to `CC1(C)CN(C(=O)N2CC[C@@H](N)C[C@H]2c2ccccc2)CC[C@H]1Cn1ccc(-c2ccccc2)cc1=O` [Example 69, 1-(((R)-1-((2S,4R)-4-Amino-2-phenylpiperidine-1-carbonyl)-3,3-dimethylpiperidin-4-yl)methyl)-4-phenylpyridin-2(1H)-one], for which the IC50 was less than 10 nM.
The result for `Cc1ccccc1-c1cc(=O)n(C[C@@H]2CCN(C(=O)N3CC[C@@H](N)C[C@H]3c3cccc(F)c3)CC23CCCC3)cn1` [Example 81, 3-(((R)-7-((2S,4R)-4-Amino-2-(3-fluorophenyl)piperidine-1-carbonyl)-7-azaspiro[4.5]decan-10-yl)methyl)-6-(0-tolyl)pyrimidin-4(3H)-one] reads less than 10 nM; that for `N[C@@H]1CCN(C(=O)N2CCC(CN3Cc4nccn4CC3=O)C3(CCCC3)C2)[C@H](c2ccccc2)C1` (stereo partly drawn) [Example 42, 7-((7-((2S,4R)-4-Amino-2-phenylpiperidine-1-carbonyl)-7-azaspiro[4.5]decan-10-yl)methyl)-7,8-dihydroimidazo[1,2-a]pyrazin-6(5H)-one], 10 to 100 nM.
With `O=C(N1CCC(Cn2ccc(-c3ccccc3)cc2=O)CC1)N1CCNC[C@H]1c1cc(F)ccc1F` [Example 22, (R)-1-((1-(2-(2,5-Difluorophenyl)piperazine-1-carbonyl)piperidin-4-yl)methyl)-4-phenylpyridin-2(1H)-one], the IC50 fell in the range of 10 to 100 nM.
Regarding `N[C@@H]1CCN(C(=O)N2CCC(Cn3ccncc3=O)C3(CCCC3)C2)[C@H](c2ccccc2)C1` (stereo partly drawn) [Example 31, 1-((7-((2S,4R)-4-Amino-2-phenylpiperidine-1-carbonyl)-7-azaspiro[4.5]decan-10-yl)methyl)pyrazin-2(1H)-one], the IC50 was in the range of 10 to 100 nM.
